The text below walks through data of patent US12012374B2, “Agonists of ROR GAMMAt” (BRISTOL-MYERS SQUIBB COMPANY, priority 2019, dated 2024).

For orientation: EC50 means the concentration needed to bring the measured effect to its halfway point.

For the assay, the target named is T1, human RORgT (Homo sapiens, UniProt P51449).
T1 construct: expressed in transfected cells; host or cells: engineered Jurkat cells (Jurkat pEx/Gal/hRORγ CLBD/HYG pG5luc/blast)
T1 sequence (P51449 267-516): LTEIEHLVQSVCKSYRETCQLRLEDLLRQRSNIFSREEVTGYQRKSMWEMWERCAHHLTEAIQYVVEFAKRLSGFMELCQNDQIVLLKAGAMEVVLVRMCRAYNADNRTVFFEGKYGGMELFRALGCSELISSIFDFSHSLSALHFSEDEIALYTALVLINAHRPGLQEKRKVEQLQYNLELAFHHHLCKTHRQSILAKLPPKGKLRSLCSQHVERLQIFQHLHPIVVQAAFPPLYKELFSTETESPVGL
Description: RORgT Gal4 Luciferase Reporter Gene Assay. The format is cell-based. Particulars: engineered Jurkat cells overexpressing RORgT (LBD or full length) fused with Gal4 Luc reporter; 18 hours incubation. (In general: A reporter such as luciferase makes a cellular process visible.)
`O=C(C1CCS(=O)(=O)C1)N1CCC(c2ccc(OCc3ccccc3)cc2)(S(=O)(=O)c2ccc(F)cc2)C1` (stereo not shown) [Example 19, 3-{3-[4-(benzyloxy)phenyl]-3-(4-fluorobenzenesulfonyl)pyrrolidine-1-carbonyl}-1λ^6-thiolane-1,1-dione] gave an EC50 of 672 nM.

In turn, `NC(=O)[C@H]1CC[C@H](C(=O)N2CC[C@](c3ccc(OCc4c(Cl)cccc4C(F)(F)F)cc3)(S(=O)(=O)c3ccc(F)cc3)C2)CC1` [Example 45, (1r,4r)-4-[(3R)-3-(4-{[2-chloro-6-(trifluoromethyl)phenyl]methoxy}phenyl)-3-(4-fluorobenzenesulfonyl)pyrrolidine-1-carbonyl]cyclohexane-1-carboxamide] came in with an EC50 of 351 nM. In the case of `O=C(O)[C@H]1CC[C@H](C(=O)N2CC[C@](c3ccc(OCc4c(Cl)cccc4Cl)cc3)(S(=O)(=O)c3ccccc3)C2)CC1` [Example 34, (1r,4r)-4-[(3R)-3-(benzenesulfonyl)-3-{4-[(2,6-dichlorophenyl)methoxy]phenyl}pyrrolidine-1-carbonyl]cyclohexane-1-carboxylic acid] it was 275 nM; in that of `NC(=O)[C@H]1CC[C@H](C(=O)N2CC[C@](c3ccc(OCc4c(F)cccc4C(F)(F)F)cc3)(S(=O)(=O)c3ccc(F)cc3)C2)CC1` [Example 44, (1r,4r)-4-[(3R)-3-(4-{[2-fluoro-6-(trifluoromethyl)phenyl]methoxy}phenyl)-3-(4-fluorobenzenesulfonyl)pyrrolidine-1-carbonyl]cyclohexane-1-carboxamide], 195 nM. With `O=C(C1CCS(=O)(=O)CC1)N1CCC(c2ccc(OCc3c(F)cccc3Cl)cc2)(S(=O)(=O)c2ccccc2)C1` (stereo not shown) [Example 29, 4-[3-(benzenesulfonyl)-3-{4-[(2-chloro-6-fluorophenyl)methoxy]phenyl}pyrrolidine-1-carbonyl]-1λ^6-thiane-1,1-dione] the figure was 39 nM; with `O=C(C1CCS(=O)(=O)CC1)N1CCC(c2ccc(OCc3ccccc3)cc2)(S(=O)(=O)c2cccc(C(F)(F)F)c2)C1` (stereo not shown) [Example 21, 4-{3-[4-(benzyloxy)phenyl]-3-[3-(trifluoromethyl)benzenesulfonyl]pyrrolidine-1-carbonyl}-1λ^6-thiane-1,1-dione], 462 nM; with `O=S(=O)(c1cccc(Cl)c1)C1(c2ccc(OCc3ccccc3)cc2)CCCC1` [Example 5, 1-(benzyloxy)-4-[1-(3-chlorobenzenesulfonyl)cyclopentyl]benzene], 240 nM. `O=S(=O)(c1ccccc1)C1(c2ccc(OCC3CCCCC3)cc2)CCCC1` [Example 10, 1-[1-(benzenesulfonyl)cyclopentyl]-4-(cyclohexylmethoxy)benzene] yielded an EC50 of 328 nM. Turning to `O=S(=O)(c1ccc(Cl)cc1)C1(c2ccc(OCc3ccccc3)cc2)CCCC1` [Example 9, 1-(benzyloxy)-4-[1-(4-chlorobenzenesulfonyl)cyclopentyl]benzene], the EC50 turned out to be 212 nM. In the case of `O=C(C1CCS(=O)(=O)CC1)N1CCC(c2ccc(OCc3ccc(F)cc3Cl)cc2)(S(=O)(=O)c2ccccc2)C1` (stereo not shown) [Example 31, 4-[3-(benzenesulfonyl)-3-{4-[(2-chloro-4-fluorophenyl)methoxy]phenyl}pyrrolidine-1-carbonyl]-1λ^6-thiane-1,1-dione] it was 343 nM.
